According to patent publication US20210300932A1, “CYCLIC PEPTIDES TARGETING ALPHA-4-BETA-7 INTEGRIN” (Zealand Pharma A/S, priority 2015, published 2021):

How the values were obtained:
[1] = target: T1, Recombinant human integrin α4β7 (Homo sapiens, UniProt P13612+P26010, DEL724-798); experiment: Integrin α4β7—MAdCAM-1 ELISA competition assay; format: binding; details: ratio a4b1 ELISA IC50 / a4b7 ELISA IC50
T1 construct: purchased R&D Systems 5397-A3-050
T1 sequence (P13612 34-977 limits assumed): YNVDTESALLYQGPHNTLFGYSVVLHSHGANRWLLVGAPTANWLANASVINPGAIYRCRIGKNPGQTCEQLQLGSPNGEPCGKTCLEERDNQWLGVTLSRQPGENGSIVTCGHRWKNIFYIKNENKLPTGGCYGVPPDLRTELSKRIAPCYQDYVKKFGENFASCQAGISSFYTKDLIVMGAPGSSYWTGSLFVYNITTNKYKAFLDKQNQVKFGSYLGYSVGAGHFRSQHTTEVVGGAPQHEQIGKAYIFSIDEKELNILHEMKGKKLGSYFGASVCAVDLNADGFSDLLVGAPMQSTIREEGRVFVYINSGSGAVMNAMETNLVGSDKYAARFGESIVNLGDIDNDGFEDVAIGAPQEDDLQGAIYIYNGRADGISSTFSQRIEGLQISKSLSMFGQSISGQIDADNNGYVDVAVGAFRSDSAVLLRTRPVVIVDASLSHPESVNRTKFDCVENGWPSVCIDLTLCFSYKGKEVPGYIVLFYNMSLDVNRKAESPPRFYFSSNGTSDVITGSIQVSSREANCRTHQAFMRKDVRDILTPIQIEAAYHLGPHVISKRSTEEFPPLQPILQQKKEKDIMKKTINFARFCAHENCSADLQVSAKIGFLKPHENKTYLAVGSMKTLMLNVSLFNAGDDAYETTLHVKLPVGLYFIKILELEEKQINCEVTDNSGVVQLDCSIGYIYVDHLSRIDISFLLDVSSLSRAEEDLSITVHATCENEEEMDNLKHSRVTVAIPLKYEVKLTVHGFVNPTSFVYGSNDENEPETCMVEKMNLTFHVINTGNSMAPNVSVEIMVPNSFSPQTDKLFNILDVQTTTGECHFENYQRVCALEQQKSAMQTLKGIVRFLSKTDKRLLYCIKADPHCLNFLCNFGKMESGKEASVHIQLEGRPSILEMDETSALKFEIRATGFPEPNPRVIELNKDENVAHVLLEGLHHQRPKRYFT
T1 sequence (P26010 20-723 limits assumed): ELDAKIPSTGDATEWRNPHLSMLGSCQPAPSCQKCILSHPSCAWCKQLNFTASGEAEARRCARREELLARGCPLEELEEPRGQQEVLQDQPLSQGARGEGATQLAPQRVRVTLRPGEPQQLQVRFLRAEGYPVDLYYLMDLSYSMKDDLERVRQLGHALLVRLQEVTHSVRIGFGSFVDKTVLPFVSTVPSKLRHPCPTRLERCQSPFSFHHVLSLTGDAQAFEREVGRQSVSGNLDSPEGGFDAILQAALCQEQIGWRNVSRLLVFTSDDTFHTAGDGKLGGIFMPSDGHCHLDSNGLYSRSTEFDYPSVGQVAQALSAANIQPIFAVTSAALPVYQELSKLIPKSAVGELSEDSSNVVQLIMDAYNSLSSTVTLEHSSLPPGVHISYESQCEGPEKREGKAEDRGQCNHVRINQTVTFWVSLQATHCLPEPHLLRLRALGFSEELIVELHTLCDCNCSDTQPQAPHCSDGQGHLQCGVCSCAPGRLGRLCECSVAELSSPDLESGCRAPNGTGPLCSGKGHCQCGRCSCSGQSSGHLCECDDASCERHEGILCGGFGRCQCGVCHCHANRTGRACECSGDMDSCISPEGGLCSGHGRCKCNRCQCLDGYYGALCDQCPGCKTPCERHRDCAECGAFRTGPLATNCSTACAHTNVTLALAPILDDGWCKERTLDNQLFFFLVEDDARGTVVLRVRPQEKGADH
Description: Integrin α4β7—MAdCAM-1 ELISA Competition Assay
Protocol • 1.1 Preparation of α4β7. • 1.1.1 Add 500 μL of PBS to the vial. […] Mix by inversion before use. Keep at 4° C. for up to 1 month. • Final concentration is 100 pg/mL • 1.1 Preparation of MadCam-Fc. • 1.1.1 Add 500 μL of Assay buffer to the vial. […] Mix by inversion before use.

CYP3A4 = CYP3A4 (Homo sapiens, UniProt P08684); experiment: in vitro
Description: (§1) Cytochrome P450 Inhibition Assay
(§2) Analyses were performed using standard LC/MS/MS protocols.

CYP1A2 = target: T2, CYP1A2 (Homo sapiens, UniProt P05177); experiment: in vitro
T2 sequence (P05177 1-516): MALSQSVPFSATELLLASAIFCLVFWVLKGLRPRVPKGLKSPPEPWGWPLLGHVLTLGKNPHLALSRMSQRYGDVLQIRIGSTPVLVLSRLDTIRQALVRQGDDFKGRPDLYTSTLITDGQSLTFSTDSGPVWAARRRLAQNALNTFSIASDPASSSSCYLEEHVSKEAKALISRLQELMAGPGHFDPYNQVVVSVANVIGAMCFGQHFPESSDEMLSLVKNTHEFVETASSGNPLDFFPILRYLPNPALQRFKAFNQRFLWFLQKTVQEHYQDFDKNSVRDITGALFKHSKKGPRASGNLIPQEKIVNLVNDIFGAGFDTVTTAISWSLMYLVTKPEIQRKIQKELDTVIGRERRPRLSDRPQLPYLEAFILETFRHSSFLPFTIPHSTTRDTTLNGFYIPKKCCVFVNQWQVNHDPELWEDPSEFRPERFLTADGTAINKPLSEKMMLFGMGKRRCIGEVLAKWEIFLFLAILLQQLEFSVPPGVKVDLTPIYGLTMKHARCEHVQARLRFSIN
Description: as §1, §2

CYP2C9 = CYP2C9 (Homo sapiens, UniProt P11712); experiment: in vitro
Description: as §1, §2

CYP2D6 = CYP2D6 (Homo sapiens, UniProt P10635); experiment: in vitro
plasma proteins [2] = experiment: in vitro; details: CD-1, mouse
Description: (§3) An equilibrium dialysis (HTDialysis) method was used employing 50% plasma collected from CD-1 mice or Sprague-Dawley rats and incubated with K2EDTA. Test articles were assessed at 1 microM concentration in three replicates. Incubation time as 5 hours and plasma and buffer standards were assessed using LC/MS/MS. Percentage recovery was calculated as (Cbuffer+Cplasma)/[average]Cinitial, [average]Cinitial being measured in triplicate from the test samples prior to dialysis. Percentage of compound unbound was calculated as Cbuffer/Cplasma.

in vitro = details: Control buffer/Buffer at 0.1 uM % Recovery
Description: as §3

plasma proteins [3] = experiment: Plasma protein binding determination, equilibrium dialysis, mouse plasma; details: CD-1, mouse, % recovery, Mouse plasma, equilibrium dialysis
Description: as §3

[4] = as above; details: first table; buffer/buffer control
Description: as §3

[5] = mouse, in vivo
Description: (§4) In Vivo Pharmacokinetic Assessments in Rodents
(§5) Oral bioavailability of test compounds was conducted by assessing plasma exposure of following one or two oral doses in mice and, in some cases, comparing said plasma exposure with that following a single intravenous dose of the same compound.
(§6) Body weights were recorded on the day of dosing.
(§7) Food restriction: Animals dosed p.o. were deprived of food overnight and fed ˜2 h following dosing.
(§8) Dosing: The formulation containing the test compound were administered p.o. by gavage with disposable feeding needles.
(§9) Sample collection: Terminal blood and tissue samples were collected under O2/CO2 anesthesia by cardiac puncture.
(§10) Sample processing/storage: All blood samples were transferred into K2EDTA tubes on wet ice and centrifuged within 5 min (3200×g for 5 min at 4° C.) to obtain plasma. Samples were stored frozen at −80° C. until bioanalysis.
(§11) Bioanalytical Method Qualification and Sample Analysis:
(§12) Instrumentation: AB Sciex API 4000 Q-TRAP MS/MS system equipped with an Agilent LC system with a binary pump, a solvent degasser, a thermostatted column compartment, a CTC autosampler and a divert valve installed between the column and mass spectrometer inlet.

[6] = In vivo pharmacokinetic assessments in rodents; details: for F: plasma
Description: as §4, §5, §6, §7, §8, §9, §10, §11, §12

[7] = system: DSS experimental model of ulcerative colitis; experiment: 8-Day efficacy study in DSS model (therapeutic); format: in vivo, C57BI/6 mice; details: 40 mg/kg p.o.
Text: The STDs in ascending order bracketing the study samples and dosing solutions • 1. The study samples • 2.
Description of Tested Compounds
Animals. Female C57BI/6 mice (Charles River, St-Constant, Qc), weighting 16-19 g at delivery were used for this study. Following arrival in the animal facility, all animals were subjected to a general health evaluation. An acclimation period of 7-14 days was allowed before the beginning of the study.
Oral dosing of the test article and the vehicle. From Day 5 to Day 8, nacellins and the vehicle were administered as a single slow bolus (over approximately 5 seconds) via oral route (p.o.), according to the procedure of administration of solution by gavage: the animal was firmly restrained. A bulb-tipped gastric gavage needle of 22G was passed through the side of the mouth and was advanced towards the oesophagus. The test articles and the vehicle were dosed orally at 5 mL/kg.
Intraperitoneal dosing of the test articles and the vehicle. On day 5, DATK32 antibody was administered in only on Day 5, as a single slow bolus (over approximately 5 seconds) via the i.p. route. […] Intraperitoneal administration was performed accordingly to the following procedure: the mouse was restrained manually and held with the head and body tilted downward. The tip of the needle (27 G) was inserted through the skin and just past the abdominal wall. A short pull back of the plunger of the syringe was done prior to administration of the solution to make sure that the syringe was not inserted in any abdominal organ (fluid would be pulled back into the syringe in this case).
Inflammation Score. Once the mouse was euthanized, the colon was collected and its length was measured. Lesion length was also measured. Colon inflammation was scored based on severity of oedema and ulceration.
Disease Activity Index (DAI) assessment. Body weight and DAI were measured on Day 5 in order to distribute DSS-treated animals in two uniform groups prior dosing. Specific symptoms associated to UC were scored based on the severity of each particular symptoms: 1—blood in stool (negative hemoccult, positive hemoccult, blood traces in stool visible, rectal bleeding); 2—stool consistency (normal, soft but still formed, very soft, diarrhea); 3—posture and fur (normal; ruffled fur; ruffled fur combined to slight hunched posture and slight dehydration; ruffled fur combined to hunched posture, dehydration and altered walking; moribund (euthanasia is mandatory before the animal reach this point). The overall DAI score was the sum of the three parameters (maximum score 9). Body weight measurement and DAI assessment were performed also on Day 8 to evaluate the effect of the treatments.
Collection of samples. On Day 8, five hours after ET02451-01, ET02452-01 and vehicle dosing, the animals were euthanized by cardiac puncture under general anesthesia, according to the “Guide to the Care and Use of Experimental Animals” published by the CCAC. Blood was transferred in a Sarstedt tube containing EDTA. Mesenteric and peripheral (inguinal, auxiliary and brachial) lymph nodes were collected and transferred on ice in corresponding tubes containing cold PBS. Nodes were kept on ice until tissue preparation.
Cell population labeling. Blood was withdrawn by cardiac puncture and collected on EDTA-coated tubes. Mensenteric lymph nodes (MLN) and peripheral lymph nodes (PLN) were also collected. Mononuclear cells from the tissues will be isolated using density gradient (Lympholyte) and they were stained with fluorescent antibodies. […] After washes, cells were fixed using BD Fix Solution. Percentage of different subpopulations of T lymphocytes were then analysed using FACSCalibur cytometer. Antibodies employed were the same as listed for the single-dose PD studies above.

in vivo = details: male, CD-1, mouse
Description: as §4, §5, §6, §7, §8, §9, §10, §11, §12

Chain of CYP3A4 (P08684 whole entry): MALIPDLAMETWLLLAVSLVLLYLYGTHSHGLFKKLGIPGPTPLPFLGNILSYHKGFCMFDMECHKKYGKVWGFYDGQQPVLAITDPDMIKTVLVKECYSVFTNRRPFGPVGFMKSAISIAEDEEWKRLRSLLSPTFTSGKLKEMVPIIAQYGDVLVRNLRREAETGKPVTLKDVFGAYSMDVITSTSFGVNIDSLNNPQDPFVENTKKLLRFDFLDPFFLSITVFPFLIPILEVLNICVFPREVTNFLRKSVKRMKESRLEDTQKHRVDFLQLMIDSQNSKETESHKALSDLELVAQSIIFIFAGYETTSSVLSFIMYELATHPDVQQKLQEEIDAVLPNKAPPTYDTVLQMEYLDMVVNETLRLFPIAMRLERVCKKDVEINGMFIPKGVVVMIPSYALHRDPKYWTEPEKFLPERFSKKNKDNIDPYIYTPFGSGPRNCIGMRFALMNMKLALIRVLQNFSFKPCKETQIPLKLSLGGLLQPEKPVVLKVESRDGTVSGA
Chain of CYP2C9 (P11712 whole entry): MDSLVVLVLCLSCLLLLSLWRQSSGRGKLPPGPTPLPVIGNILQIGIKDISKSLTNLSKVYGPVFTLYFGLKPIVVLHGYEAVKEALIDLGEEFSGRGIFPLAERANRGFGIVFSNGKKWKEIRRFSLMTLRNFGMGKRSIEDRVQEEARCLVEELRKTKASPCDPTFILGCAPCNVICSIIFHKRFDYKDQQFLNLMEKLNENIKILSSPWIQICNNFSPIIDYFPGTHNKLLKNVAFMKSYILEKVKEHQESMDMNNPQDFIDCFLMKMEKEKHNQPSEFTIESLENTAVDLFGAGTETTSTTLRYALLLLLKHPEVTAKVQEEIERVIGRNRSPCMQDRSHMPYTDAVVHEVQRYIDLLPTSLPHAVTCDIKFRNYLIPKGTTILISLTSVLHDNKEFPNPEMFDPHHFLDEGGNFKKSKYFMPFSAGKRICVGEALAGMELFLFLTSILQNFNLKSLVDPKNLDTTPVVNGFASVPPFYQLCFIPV
Chain of CYP2D6 (P10635 whole entry): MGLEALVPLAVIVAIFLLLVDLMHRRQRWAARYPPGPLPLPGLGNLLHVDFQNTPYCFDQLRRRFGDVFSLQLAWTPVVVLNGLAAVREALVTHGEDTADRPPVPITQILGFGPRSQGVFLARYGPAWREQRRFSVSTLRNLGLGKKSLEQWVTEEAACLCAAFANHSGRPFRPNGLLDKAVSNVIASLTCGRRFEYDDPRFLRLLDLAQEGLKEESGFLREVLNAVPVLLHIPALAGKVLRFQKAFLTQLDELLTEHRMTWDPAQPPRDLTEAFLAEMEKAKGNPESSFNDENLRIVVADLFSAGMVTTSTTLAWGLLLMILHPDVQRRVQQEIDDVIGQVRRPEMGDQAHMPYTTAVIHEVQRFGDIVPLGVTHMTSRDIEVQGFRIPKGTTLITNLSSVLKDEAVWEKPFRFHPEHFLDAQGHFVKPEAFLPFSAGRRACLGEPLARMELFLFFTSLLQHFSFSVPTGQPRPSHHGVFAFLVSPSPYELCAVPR

With `COc1ccccc1-c1ccccc1C[C@@H]1NC(=O)[C@@H]2CCCN2[C@H](C(=O)NC(C)(C)C)[C@H](C)NC(=O)[C@H]([C@@H](C)O)NC(=O)[C@H](CC(=O)O)NC(=O)[C@H](CC(C)C)NC(=O)[C@H]2CCCCN2C1=O` [Compound 135] the “Selectivity ELISA” value [1] was 4.9.
In the case of `CC(C)C[C@@H]1NC(=O)[C@H]2CCCCN2C(=O)[C@H](Cc2ccc(O)cc2)N(C)C(=O)[C@@H]2CCCN2[C@H](C(=O)NC(C)(C)C)[C@H](C)NC(=O)[C@H]([C@@H](C)O)NC(=O)[C@H](CC(=O)O)NC1=O` [Compound 148], the “Selectivity ELISA” value [1] is reported as 1.2.
In the case of `CC[C@H](C)[C@@H]1NC(=O)[C@H](CC(=O)O)NC(=O)[C@H](CC(C)C)NC(=O)[C@H](Cc2ccc3ccccc3c2)NC(=O)[C@@H]2CCCN2[C@H](C(=O)NC(C)(C)C)[C@H](C)NC1=O` [Compound No. 15], the IC50 (CYP3A4) is reported as > 15 µM, the IC50 (CYP1A2) is reported as > 15 µM and the IC50 (CYP2C9) is reported as > 15 µM. The IC50 (CYP2D6) was > 15 µM, the fraction unbound at 5 hours, 1 microM (plasma proteins [2]; % unbound (Cbuffer/Cplasma) 1) was 0.1 and the fraction unbound at 5 hours, 1 microM (plasma proteins [2]; % unbound (Cbuffer/Cplasma) 2) was 0.093. It also gave a fraction unbound at 5 hours, 1 microM (plasma proteins [2]; % unbound (Cbuffer/Cplasma) 3) of 0.136, a recovery at 5 hours, 0.1 uM (in vitro) of 70% and a recovery at 5 hours, 1 microM (plasma proteins [3]; first table) of 103%. The recovery at 5 hours, 1 microM (plasma proteins [3]; second table) was 143% and the “Control buffer/Buffer at 0.1 uM Cdonor/Creciever” value [4] was 86%.
With `CC(C)C[C@@H]1NC(=O)c2ccc(-c3ccc(N4CCNCC4)cc3)c(c2)CNC(=O)[C@@H]2CCCN2[C@H](C(=O)NC(C)(C)C)[C@H](C)NC(=O)[C@H]([C@@H](C)O)NC(=O)[C@H](CC(=O)O)NC1=O` [Compound No. 340] the “oral bioavailability (in words)” value [5] was “significant absorption from the gut and systemic exposure”, the “half-life in the liver” value ([6]; following oral dosing 40 mg/kg) was ~480 min and the AUC(0-t) ([6]; male, CD-1, mouse, in vivo, iv, 5 mg/kg) was 778 ng·h/mL. For the same compound, the Tmax ([6]; male, CD-1, mouse, in vivo, po, 40 mg/kg) was 5 min, the half-life ([6]; male, CD-1, mouse, in vivo, po, 40 mg/kg, elimination half-life in plasma, following oral dosing 40 mg/kg) was ~30 min and the half-life ([6]; male, CD-1, mouse, in vivo, po, 40 mg/kg, half-life in colon, following oral dosing 40 mg/kg) was > 1260 min. For the same compound, the F ([6]; i.v. 5 mg/kg) was 100%, the F ([6]; p.o. 40 mg/kg) was 11.0% and the “CD3+CD4+α4β7+ cell population in mesenteric lymph nodes” value [7] was “significant decrease”. For the same compound, the “reduction of lesion length vs vehicle group” value ([7]; Day 5 to Day 8) was “significantly reduced the lesion length”, the “reduction of DAI score on Day 8 vs DSS+vehicle” value ([7]; b.i.d., Day 5 to Day 8) was 15% and the lesion/colon length ([7]; vehicle group 40%) was 12%. The bioavailability (in vivo) was ~11%, the AUC(0-inf) (in vivo; iv, 5 mg/kg) was 778 ng·h/mL and the C0 (in vivo; iv, 5 mg/kg) was 1410 ng/mL. For the same compound, the Cmax (in vivo; iv, 5 mg/kg) was 1330 ng/mL, the MRT inf (in vivo; iv, 5 mg/kg) was 41.9 min and the Vd (in vivo; iv, 5 mg/kg) was 4.49 L/kg. The clearance (in vivo; iv, 5 mg/kg) was 107 mL/min/kg, the half-life (in vivo; iv, 5 mg/kg) was 120 min and the AUC(0-inf) (in vivo; po, 40 mg/kg) was 690 ng·h/mL. It also gave an AUC(0-t) (in vivo; po, 40 mg/kg) of 686 ng·h/mL, an MRT inf (in vivo; po, 40 mg/kg) of 41.3 min and a half-life (in vivo; po, 40 mg/kg) of 32.2 min.
